The results in this text go back to patent US20110224221A1, “HEMATOPOIETIC PROTECTION AGAINST IONIZING RADIATION USING SELECTIVE CYCLIN-DEPENDENT KINASE 4/6 INHIBITORS” (priority 2008, published 2011).

Structures are written as SMILES.

Experiment [1] has as its system human melanoma cell line WM2664. As to the kind of experiment: Cell cycle analysis (BrdU incorporation in vitro), WM2664. In kind it is cell-based. As to conditions: WM2664, 24 hours exposure. The source says:
FIG. 3A is a set of graphs showing the dose-response curves for cycle analysis in both cyclin-dependent kinase 4/6 (CKD4/6)-dependent cells (human telomerized human diploid fibroblasts (tHDFs, left-hand column of graphs) and a CDK4/6-dependent human melanoma cell line (WM2664, middle column of graphs)) and in CDK4/6-independent cells (a human retinoblastoma tumor suppressor protein (RB)-null melanoma cell line (A2058), right-hand column of graphs). […] The percentage of cells in the G1 phase is indicated by the data shown in the open triangles, while the percentage of cells in the S phase is shown by the data in the shaded circles and the percentage of cells in the G2/M phase is indicated by the data in the double “x”s.
FIG. 8 is a set of representative cell cycle dot-plots for cyclin-dependent kinase 4/6 (CDK4/6)-dependent (WM2664) human melanoma cells (top two rows) and CDK4/6-independent (A2058) human melanoma cells (bottom two rows) that had been treated with dimethyl sulfoxide (DMSO) as a control or with 300 nM, 1 μM, 3 μM, 10 μM or 30 μM of trans-4-[[6-ethylamino)-2-[[2-phenylmethyl)-1H-indol-5-yl]amino]-4-pyrimidinyl]amino]]-cyclohexanol (CINK4).
Cell Lines: KPTR1, KPTR4. and KPTR5 were derived from tumor-bearing TyrRAS+Ink4a/Arf−/− by standard procedures and cultured in RPMI+10% fetal bovine serum (FBS). Telomerized HDFs (tHDFs, also known as HS68) were cultured in DMEM+10% FBS with penicillin and streptomycin. The same conditions were used for A2058 and WM2664, human melanoma cell lines with known RB-pathway mutations: A2058 is RB-null, whereas WM2664 lacks p16^INK4a/Arf. See Shields, et al., Cancer Res., 67, 1502-1512 (2007). Cells were irradiated for indicated doses in a Rad Source Inc. (Alpharetta, Ga., United States of America) RS-2000 Biological Irradiator at 160 kV, 25.0 mA, at distance setting 1, with a dose rate of 103 rads/min.
BrdU Incorporation in vitro: Cells were plated and allowed to adhere overnight or at least 6 hours prior to adding CDK4/6 inhibitor at the indicated concentrations. Cells were grown for 24 hours in the presence of CDK4/6 inhibitor. 15 minutes prior to cell harvesting, 5-Bromo-2-deoxyuridine (BrdU) was added to the media at a final concentration of 10 μM. The cells were then washed, trypsinized, pelleted, fixed, permeabilized, stained, and measured on a flow cytometer as described in manufacturer directions for the BrdU Kit (BD Biosciences Pharmingen, San Diego, Calif., United States of America).
The proliferation of seven RB-deficient human small cell lung cancer lines was also resistant to the selective CDK4/6 inhibitors.
For orientation: Incorporation of labelled thymidine or its analogues reports DNA synthesis.

The test system of a further experiment is tHDF (HS68) cells. In words: Clonogenic assay after IR, tHDF (HS68). In kind it is cell-based, human. Conditions: PD0332991 100 nM, 2BrIC 2 μM, CINK4 6 μM, IR 0-9 Gy. Here is the method: FIG. 6A is a set of micrograph images of crystal violet stained cell cultures of cyclin-dependent kinase 4/6 (CDK4/6)-dependent cells (HS68) plated at different cell/well ratios and treated with either dimethyl sulfoxide (DMSO) as a negative control or with the selective CDK4/6 inhibitor 2-bromo-12,13-dihydro-5H-indolo[2,3-a]pyrrolo[3,4]carbazole-5,6-dione (2BrIC) at 2 μM for 24 hours prior to exposure to ionizing radiation at 0, 1.5, 3, 6, or 9 gray (Gy), as indicated.
Data plotted is the area/cell ratio of PD0332991 treated cells to dimethyl sulfoxide (DMSO) treated cells. Error bars show standard error of the mean.
FIG. 9A is a set of micrograph images of cell cultures of cyclin-dependent kinase 4/6 (CDK4/6)-dependent cells (HS68) plated at different cell/well ratios and pretreated with either dimethyl sulfoxide (DMSO) as a control or with the nonselective CDK4/6 inhibitor trans-4-[[6-ethylamino)-2-[[1-phenylmethyl)-1H-indol-5-yl]amino]-4-pyrimidinyl]amino]]-cyclohexanol (CINK4) at 6 μM for 24 hours prior to exposure to ionizing radiation at 0, 1.5, 3, 6, or 9 gray (Gy), as indicated. The plates were stained with crystal violet to visualize cell colonies.
Clonogenic Assay: The clonogenic assay was performed as previously described (see Franken et al., Nature protocols, 1, 2315-1319 (2006)) with cells plated in a six-well plate at least 6 hours prior to treatment with CDK inhibitor for 24 hours, with 6 Gy IR occurring 12 hours after initiation of CDK inhibitor exposure. Cells were grown for 16 days, washed, fixed, and stained with crystal violet. Plates were then imaged using an Odyssey infrared scanner (Li-Cor Biosciences, Lincoln, Nebr., United States of America) and quantified using the accompanying software.

For the compound `O=C1NC(=O)c2c1c1c3ccccc3[nH]c1c1[nH]c3cc(Br)ccc3c21` [Compound 2BrIC, 2-bromo-12,13-dihydro-5H-indolo[2,3-a]pyrrolo[3,4]-carbazole-5,6-dione], in experiment [1], the cell cycle effect result is reported as “strong, reversible G1-arrest”. The “clonogenic cell survival after IR (area/cell ratio relative to DMSO)” value with tHDF (HS68) cells is reported as “enhanced clonogenic cell survival”.
As for `CC(=O)c1c(C)c2cnc(Nc3ccc(N4CCNCC4)cn3)nc2n(C2CCCC2)c1=O` [PD0332991, 6-acetyl-8-cyclopentyl-5-methyl-2-(5-piperazin-1-yl-pyridin-2-ylamino)-8H-pyrido-[2,3-d]-pyrimidin-7-one], in experiment [1], the cell cycle effect entry is listed as “strong, reversible G1-arrest”. For the same compound, the “clonogenic cell survival after IR (area/cell ratio relative to DMSO)” value in the experiment on tHDF (HS68) cells was “enhanced clonogenic cell survival”.
